US20250282749A1 (Tango Therapeutics, Inc., priority 2022, published 2025)

Legend:
Assay type in all cases: cell-based
[1] = tested on: PRMT5 (SDMA) in HAP1 MTAP-intact cell line; test: SDMA in-cell western assay, HAP1 MTAP-intact cell line; settings: Homo sapiens, HAP1 MTAP-intact cell line (endogenous MTAP), read-out: Hap 1 MTAP intact IC50
Description: (§1) HAP1 MTAP-intact is a cell line in which endogenous levels of MTAP are expressed, and HAP1 MTAP-deleted is an MTAP-null cell line.

[2] = tested on: PRMT5 (SDMA) in HAP1 MTAP-deleted cell line; test: SDMA in-cell western assay, HAP1 MTAP-deleted cell line; settings: for IC50 / IC90: Homo sapiens, SDMA in-cell western, HAP1 MTAP-deleted (MTAP-null) cell line; for Hap1 MTAP intact/deleted ratio: ratio of SDMA in-cell western IC50 in HAP1 MTAP-intact to IC50 in HAP1 MTAP-deleted cell line
Description: as §1

[3] = tested on: HAP1 MTAP-deleted cell line; test: viability assay for the MTAP-deleted cell line; settings: Homo sapiens

| Compound | IC50 [1] [nM] | IC50 [2] [nM] | IC90 [2] [nM] | Hap1 MTAP intact/deleted ratio [2] | IC50 [3] [nM] |
| --- | --- | --- | --- | --- | --- |
| Cc1cc(NC(=O)C(=O)N2C[C@@H](C)N(C(=O)C3(C(F)(F)F)CC3)C[C@@H]2c2ccc(Cl)c(Cl)c2)cnc1N [Compound 119, N-(6-amino-5-methylpyridin-3-yl)-2-((2S,5R)-2-(3,4-dichlorophenyl)-5-methyl-4-(1-(trifluoromethyl)cyclopropanecarbonyl)piperazin-1-yl)-2-oxoacetamide] | > 50 | 5 to 50 | 75 to 125 | C (an IC50 ratio of less than 15 fold) | < 100 |
| CCc1cc(NC(=O)C(=O)N2C[C@@H](C)N(C(=O)C3(C(F)(F)F)CC3)C[C@@H]2c2ccc(C)cc2)cnc1N [Compound 85, N-(6-amino-5-ethylpyridin-3-yl)-2-((2S,5R)-5-methyl-2-(p-tolyl)-4-(1-(trifluoromethyl)cyclopropanecarbonyl)piperazin-1-yl)-2-oxoacetamide] | > 50 | 5 to 50 | 75 to 125 | B (an IC50 ratio greater than or equal to 15 fold but lower than 30 fold) | < 100 |
| C[C@@H]1CN(C(=O)C(=O)Nc2cncc3cn[nH]c23)[C@@H](c2ccccc2)CN1C(=O)OC(C)(C)C [Compound 35, tert-butyl (2R,5S)-2-methyl-4-[2-oxo-2-(1H-pyrazolo[4,3-c]pyridin-7-ylamino)acetyl]-5-phenyl-piperazine-1-carboxylate] | > 50 | 5 to 50 | > 125 | A (an IC50 ratio greater than or equal to 30 fold) | < 100 |
| Cc1cc(NC(=O)C(=O)N2C[C@@H](C)N(C(=O)C(C)(C)N(C)C)C[C@@H]2c2ccccc2)cnc1N [Compound 28] | > 50 | 5 to 50 | 75 to 125 | B (an IC50 ratio greater than or equal to 15 fold but lower than 30 fold) | < 100 |
| CCc1cc(NC(=O)C(=O)N2C[C@@H](C)N(C(=O)C3(C(F)(F)F)CC3)C[C@@H]2c2ccc(F)c(Cl)c2)cnc1N [Compound 139, N-(6-amino-5-ethylpyridin-3-yl)-2-((2S,5R)-2-(3-chloro-4-fluorophenyl)-5-methyl-4-(1-(trifluoromethyl)cyclopropanecarbonyl)piperazin-1-yl)-2-oxoacetamide] | 5 to 50 | < 5 | < 75 | B (an IC50 ratio greater than or equal to 15 fold but lower than 30 fold) | < 100 |
| C[C@@H]1CN(C(=O)C(=O)Nc2cnc(N)c3c2cnn3C)[C@@H](c2ccccc2)CN1C(=O)C1(C)CC1 [Compound 169, N-(7-Amino-1-methyl-pyrazolo[3,4-c]pyridin-4-yl)-2-oxo-2-[(2S,5R)-5-methyl-4-(1-methylcyclopropanecarbonyl)-2-phenyl-piperazin-1-yl]acetamide] | 5 to 50 | < 5 | < 75 | C (an IC50 ratio of less than 15 fold) | < 100 |
| C[C@@H]1CN(C(=O)C(=O)Nc2cnc(N)c3cn[nH]c23)[C@@H](c2ccc(F)cc2)CN1C [Compound 135] | > 50 | < 5 | 75 to 125 | A (an IC50 ratio greater than or equal to 30 fold) | 100 to 1000 |
| Cc1cc(NC(=O)C(=O)N2C[C@@H](C)N(C(=O)C(C)(C)CN3CCn4ccnc4C3)C[C@@H]2c2ccccc2)cnc1N [Compound 109] | > 50 | 5 to 50 | > 125 | C (an IC50 ratio of less than 15 fold) | 100 to 1000 |
| C[C@@H]1CN(C(=O)C(=O)Nc2cncc3[nH]ncc23)[C@@H](c2ccc(F)cc2)CN1C(=O)C(C)(C)C [Compound 125, 2-[(2R,5R)-4-(2,2-dimethylpropanoyl)-2-(4-fluorophenyl)-5-methyl-piperazin-1-yl]-2-oxo-N-(^1H-pyrazolo[3,4-c]pyridin-4-yl)acetamide] | > 50 | 5 to 50 | < 75 | A (an IC50 ratio greater than or equal to 30 fold) | 100 to 1000 |
| C[C@H]1CN(C(=O)C(=O)Nc2cnc(N)c(C3CC3)c2)[C@H](c2ccc(F)cc2)CN1C(=O)OC(C)(C)C (stereo in doubt) [Compound 146, tert-butyl 4-(2-((6-amino-5-cyclopropylpyridin-3-yl)amino)-2-oxoacetyl)-5-(4-fluorophenyl)-2-methylpiperazine-1-carboxylate] | > 50 | > 50 | > 125 | C (an IC50 ratio of less than 15 fold) | > 1000 |
| C[C@@H]1CN(C(=O)C(=O)Nc2cncc3[nH]ncc23)[C@@H](c2ccccc2)CN1C(=O)C1(C)CC1 [Compound 147, 2-((2S,5R)-5-methyl-4-(1-methylcyclopropanecarbonyl)-2-phenylpiperazin-1-yl)-2-oxo-N-(1H-pyrazolo[3,4-c]pyridin-4-yl)acetamide] | > 50 | < 5 | > 125 | A (an IC50 ratio greater than or equal to 30 fold) | 100 to 1000 |
| CCc1cc(NC(=O)C(=O)N2C[C@@H](C)N(C(=O)C(C)(C)C)C[C@@H]2c2ccc(F)cc2)cnc1N [Compound 33, N-(6-amino-5-ethylpyridin-3-yl)-2-((2S,5R)-2-(4-fluorophenyl)-5-methyl-4-pivaloylpiperazin-1-yl)-2-oxoacetamide] | 5 to 50 | < 5 | < 75 | C (an IC50 ratio of less than 15 fold) | < 100 |

The next lines start with results.

| IC50 [1] [nM] | IC50 [2] [nM] | IC90 [2] [nM] | Compound | Hap1 MTAP intact/deleted ratio [2] | IC50 [3] [nM] |
| --- | --- | --- | --- | --- | --- |
| > 50 | 5 to 50 | 75 to 125 | Cc1cc(NC(=O)C(=O)N2C[C@@H](C)N(C(=O)CC3(C)CC3)C[C@@H]2c2ccccc2)cnc1N [Compound 49] | C (an IC50 ratio of less than 15 fold) | 100 to 1000 |
| > 50 | > 50 | > 125 | CC(C)OC(=O)N1C[C@H](c2ccc(F)cc2)N(C(=O)C(=O)Nc2cnc(N)c(C3CC3)c2)C[C@H]1C (stereo in doubt) [Compound 92, isopropyl 4-(2-((6-amino-5-cyclopropylpyridin-3-yl)amino)-2-oxoacetyl)-5-(4-fluorophenyl)-2-methylpiperazine-1-carboxylate] | C (an IC50 ratio of less than 15 fold) | > 1000 |
| > 50 | 5 to 50 | 75 to 125 | Cc1ccc([C@H]2CN(C(=O)C3(C(F)(F)F)CC3)[C@H](C)CN2C(=O)C(=O)Nc2cnc(N)c(C)c2)cc1 [Compound 128, N-(6-amino-5-methylpyridin-3-yl)-2-((2S,5R)-5-methyl-2-(p-tolyl)-4-(1-(trifluoromethyl)cyclopropanecarbonyl)piperazin-1-yl)-2-oxoacetamide] | B (an IC50 ratio greater than or equal to 15 fold but lower than 30 fold) | < 100 |
| > 50 | < 5 | > 125 | Cc1cc(NC(=O)C(=O)N2C[C@@H](C)N(C(=O)C3(C)CC3)C[C@@H]2c2ccsc2)cnc1N [Compound 31, N-(6-amino-5-methyl-3-pyridyl)-2-[(2S,5R)-5-methyl-4-(1-methylcyclopropanecarbonyl)-2-(3-thienyl)piperazin-1-yl]-2-oxo-acetamide] | B (an IC50 ratio greater than or equal to 15 fold but lower than 30 fold) | < 100 |
| > 50 | 5 to 50 | 75 to 125 | C[C@@H]1CN(C(=O)C(=O)Nc2cnc(N)c(C3CC3)c2)[C@@H](c2ccc(F)cc2)CN1C(=O)C1(C(F)(F)F)CC1 [Compound 112, N-(6-amino-5-cyclopropylpyridin-3-yl)-2-((2S,5R)-2-(4-fluorophenyl)-5-methyl-4-(1-(trifluoromethyl)cyclopropanecarbonyl)piperazin-1-yl)-2-oxoacetamide] | C (an IC50 ratio of less than 15 fold) | < 100 |
| 5 to 50 | < 5 | < 75 | Cc1cc(NC(=O)C(=O)N2C[C@@H](C)N(C(=O)C3(C)CC3)C[C@@H]2c2ccc(Cl)cc2)cnc1N [Compound 65] | C (an IC50 ratio of less than 15 fold) | < 100 |
| > 50 | 5 to 50 | > 125 | C[C@@H]1CN(C(=O)C(=O)Nc2cncc3cn[nH]c23)[C@@H](c2cccc(Cl)c2)CN1C(=O)C(C)(C)C [Compound 9, 2-((2S,5R)-2-(3-chlorophenyl)-5-methyl-4-pivaloylpiperazin-1-yl)-2-oxo-N-(1H-pyrazolo[4,3-c]pyridin-7-yl)acetamide] | B (an IC50 ratio greater than or equal to 15 fold but lower than 30 fold) | 100 to 1000 |
| 5 to 50 | < 5 | < 75 | Cc1cc(NC(=O)C(=O)N2C[C@@H](C)N(C(=O)C(C)C)C[C@@H]2c2ccc(N3CCN(C)CC3)cc2)cnc1N [Compound 11, N-(6-amino-5-methylpyridin-3-yl)-2-((2S,5R)-4-isobutyryl-5-methyl-2-(4-(4-methylpiperazin-1-yl)phenyl)piperazin-1-yl)-2-oxoacetamide] | C (an IC50 ratio of less than 15 fold) | < 100 |
| 5 to 50 | < 5 |  | C[C@@H]1CN(C(=O)C(=O)Nc2cnc(N)c3cn[nH]c23)[C@@H](c2ccccc2)CN1C1CCC1 (racemic) [Compound 163, N-(4-Amino-2H-pyrazolo[4,3-c]pyridin-7-yl)-2-oxo-2-[rac-(2S,5R)-4-cyclobutyl-5-methyl-2-phenyl-piperazin-1-yl]acetamide] | C (an IC50 ratio of less than 15 fold) | < 100 |
